Common to all, as to assay: NCI-60 cell line screen, 48 h
Assay [1] relates to M19-MEL melanoma.
Assay [2] relates to XF 498 CNS.
In assay [3] the test system is DLD-1 colon.
Assay [4] deals with DMS 273 small cell lung.
Assay [5] deals with HOP-18 NSCLC.
Assay [6] deals with SNB-78 CNS.
In assay [7] the test system is DMS 114 small cell lung.
Assay [8] deals with LXFL 529 NSCLC.
Assay [9] concerns KM20L2 colon.
Assay [10] has as its system RXF-631 renal.

For seven compounds, TGI results are on record in PubChem BioAssay (NCI).

Each structure is given as a SMILES string.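 These data come from cells grown in 96-well plates and exposed to compound for 48 hours at five concentrations. TGI: total growth inhibition.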

For the compound `O=C(NN1C(=O)C(Cl)C1c1c(O)ccc2ccccc12)c1ccccc1O` (stereo unspecified), the TGI in assay [1], in assay [2], in assay [3], in assay [4], in [5] and in [6] was over 100 µM in each case. Further, the TGI in [7] and in [8] was over 100 µM each time.
Regarding `Cn1c(=O)c(C(=O)NC23CC4CC(CC(C4)C2)C3)c(O)c2ccccc21`, the TGI in assay [1] was over 100 µM; in assay [3], over 100 µM; in assay [4] it was 64.3 µM; in assay [9] it was over 100 µM; in [6] it was over 100 µM; in assay [7], over 100 µM. The same compound gave a TGI in assay [8] of over 100 µM.
Consider `COc1cccc2c1[C@H]1OC(=O)NC1CCCCC2` (stereo partly specified), for which the TGI in assay [1], in assay [3], in [4], in assay [5], in assay [9] and in [6] was over 100 µM in each case. Moreover, the TGI in assay [7] and in assay [8] was over 100 µM throughout.
For `CSc1nc(C)cc(=O)n1C1OC(COC(C)=O)C(OC(C)=O)C(OC(C)=O)C1OC(C)=O` (stereo unspecified), the TGI in [1], in [2], in [3], in assay [4], in assay [9] and in assay [7] was over 100 µM throughout. This compound also gave a TGI in [8] of over 100 µM.
With `CCN(CC)C(=S)S`, the TGI in [1] is over 37.5 µM; in assay [10] it was over 67.4 µM; in assay [3] it was over 100 µM; in assay [5] it was over 100 µM; in assay [9] it was over 100 µM; in [6], over 100 µM. In assay [8], this compound came in with a TGI of over 100 µM.
For `O[C@]12c3ccccc3C1CCCCC2N1CCOCC1` (stereo partly specified), the TGI in assay [1], in assay [2], in [4], in assay [5], in assay [9] and in assay [6] was over 100 µM each time. Also, the TGI in [7] and in [8] was over 100 µM throughout.
Consider `Nc1ncnc2c1ncn2CCOC(c1ccccc1)P(=O)(O)O` (stereo unspecified), for which the TGI in assay [1], in assay [3], in assay [4], in assay [9], in [6] and in [8] was over 100 µM each time.
